{
  "source": "the supplement of paper PMC10307832",
  "test_in_all_cases": "relative viability (nuclei count vs DMSO), 5 days (fraction); higher = more cells survive",
  "key": {"[1]": {"compound": "O=S(=O)(c1ccccc1)N(CC(F)(F)F)c1ccc(C(O)(C(F)(F)F)C(F)(F)F)cc1 + CCNC(=O)c1noc(-c2cc(C(C)C)c(O)cc2O)c1-c1ccc(CN2CCOCC2)cc1 [Luminespib] (partner 0.01 µM)", "in_short": "(§1)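 Lung cancer cell lines were seeded in 1536-well plates and dosed by pin tool the next day, with either a single drug or a fixed anchor-drug dose combined with five library-drug doses (not always all listed) spaced in √10 steps. Five days later, one step fixed the cells and stained their nuclei (final 0.05% Triton X-100, 1% formaldehyde, 1 ug/ml Hoechst), and nuclei were counted on 4× images. Relative viability is the nuclei count in treated wells divided by the count in vehicle wells, and each value is the median of duplicate plates.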"}, "RO-3306 + Pemetrexed": {"compound": "C1=CC2=C(C=CC(=C2)C=C3C(=O)NC(=NCC4=CC=CS4)S3)N=C1 [RO-3306] + Nc1nc2[nH]cc(CCc3ccc(C(=O)N[C@@H](CCC(=O)O)C(=O)O)cc3)c2c(=O)[nH]1 [Pemetrexed] (partner 0.2 µM)", "in_short": "as §1"}, "RO-3306 + Pictilisib": {"compound": "C1=CC2=C(C=CC(=C2)C=C3C(=O)NC(=NCC4=CC=CS4)S3)N=C1 [RO-3306] + CS(=O)(=O)N1CCN(Cc2cc3nc(-c4cccc5[nH]ncc45)nc(N4CCOCC4)c3s2)CC1 [Pictilisib] (partner 1 µM)", "in_short": "as §1"}, "RO-3306 + Vorinostat": {"compound": "C1=CC2=C(C=CC(=C2)C=C3C(=O)NC(=NCC4=CC=CS4)S3)N=C1 [RO-3306] + O=C(CCCCCCC(=O)Nc1ccccc1)NO [Vorinostat] (partner 1 µM)", "in_short": "as §1"}},
  "data": [
    {"cell line": "UMC-11", "values": [
      {"measurement": "relative viability", "setting": "[1]; first compound 0.8 µM", "value": 1.19},
      {"measurement": "relative viability", "setting": "[1]; first compound 2.53 µM", "value": 1.13},
      {"measurement": "relative viability", "setting": "[1]; first compound 8 µM", "value": 1.13},
      {"measurement": "relative viability", "setting": "RO-3306 + Pemetrexed; first compound 0.01 µM", "value": 0.906},
      {"measurement": "relative viability", "setting": "RO-3306 + Pemetrexed; first compound 0.03162 µM", "value": 0.746},
      {"measurement": "relative viability", "setting": "RO-3306 + Pemetrexed; first compound 0.1 µM", "value": 0.816},
      {"measurement": "relative viability", "setting": "RO-3306 + Pemetrexed; first compound 0.3162 µM", "value": 0.816},
      {"measurement": "relative viability", "setting": "RO-3306 + Pemetrexed; first compound 1 µM", "value": 0.791},
      {"measurement": "relative viability", "setting": "RO-3306 + Pictilisib; first compound 0.01 µM", "value": 1.16},
      {"measurement": "relative viability", "setting": "RO-3306 + Pictilisib; first compound 0.03162 µM", "value": 0.729},
      {"measurement": "relative viability", "setting": "RO-3306 + Pictilisib; first compound 0.1 µM", "value": 0.811},
      {"measurement": "relative viability", "setting": "RO-3306 + Pictilisib; first compound 0.3162 µM", "value": 0.859},
      {"measurement": "relative viability", "setting": "RO-3306 + Pictilisib; first compound 1 µM", "value": 0.617},
      {"measurement": "relative viability", "setting": "RO-3306 + Vorinostat; first compound 0.01 µM", "value": 0.386},
      {"measurement": "relative viability", "setting": "RO-3306 + Vorinostat; first compound 0.03162 µM", "value": 0.376},
      {"measurement": "relative viability", "setting": "RO-3306 + Vorinostat; first compound 0.1 µM", "value": 0.384},
      {"measurement": "relative viability", "setting": "RO-3306 + Vorinostat; first compound 0.3162 µM", "value": 0.339},
      {"measurement": "relative viability", "setting": "RO-3306 + Vorinostat; first compound 1 µM", "value": 0.322}
    ]}
  ]
}
